Test system: TNF-α release from monocytes
Format: cell-based
Conditions: supernatant of human monocytes after overnight incubation; okadaic acid (OA) 50 nM; troglitazone 30 μm; MGSA polymers 50%; ELISA
Method: Human monocytes were isolated from freshly collected buffy coat preparations of whole human blood. Briefly, whole blood was diluted 1:1.33 with sterile phosphate buffered solution (PBS) and layered over Histopaque, which was then centrifuged for 30 minutes at 1500 rpm at room temperature. The interface was harvested and washed with PBS, followed by another centrifugation at 1500 rpm for 10 minutes. A final wash was performed in RPMI 1640 with 10% fetal bovine serum (FBS). Cells were counted using a hemacytometer and seeded at 2.4×10^6 cells/300 μl into a 48-well tissue culture treated plate. Cells were incubated for 1 hour at 37° C., 5% CO2 and non-adherent cells were removed with a PBS wash. 300 μl of RPMI 1640 with 10% FBS was added back to the cells along with the various test conditions; cells in media alone, with DMSO (the vehicle used to reconstitue okadaic acid and troglitazone), with okadaic acid (OA, 50 nM), with OA and troglitazone (30 μm), with OA and monostearyl glyceride succinic anhydride (MGSA)-liquid (3305-15, 50%), and with OA and MGSA-solid (2804-60, 50%). The supernatants were collected after overnight incubation at 37° C., 5% CO2 and later analyzed for TNF-α by ELISA.

| SMILES | TNF-α |
| --- | --- |
| C=C1[C@@H](O)[C@@H]2O[C@]3(CC[C@H](/C=C/[C@@H](C)[C@@H]4CC(C)=C[C@@]5(O[C@H](C[C@@](C)(O)C(=O)O)CC[C@H]5O)O4)O3)CC[C@H]2O[C@@H]1[C@@H](O)C[C@H](C)[C@H]1O[C@@]2(CCCCO2)CC[C@H]1C [Okadaic Acid, okadaic acid] | 575.765 ng/mL |
| Cc1c(C)c2c(c(C)c1O)CCC(C)(COc1ccc(CC3SC(=O)NC3=O)cc1)O2 (centres unmarked) [Troglitazone] | 422.554 ng/mL |

— patent US20080138317A1, “Use of biocompatible amphiphilic polymers as an anti-inflammatory agent” (priority 2004, published 2008)
